Laboratory results as given in the NIST ThermoML archive (doi:10.1016/j.jct.2010.12.014).
Several values for one entry are separate records, joined by “and”; a condition that tells them apart may be missing. Identical values can stand only once. Numbers after ± are expanded uncertainties.

Columns and labels:
[1] = xn = mol fraction of the nth substance listed; conditions: 298.15 K, 101 kPa, Liquid, Vibrating tube method
[2] = 298.15 K; 101.33 kPa; Liquid; Vibrating tube method
[3] = refractive index (Na D-line) (dimensionless); conditions: 298.15 K; 101.33 kPa; Liquid; Standard Abbe refractometry

| Structure (SMILES) | mass density [2] | refractive index [3] | also measured |
| --- | --- | --- | --- |
| C1CCCCCCC1 [cyclooctane] + CCOS(=O)(=O)[O-].CCn1cc[n+](C)c1 | – | – | mass density ([1]; x1 = 0.012): 1232.65 ± 0.42 kg/m3 |
| CCOS(=O)(=O)[O-].CCn1cc[n+](C)c1 [1-ethyl-3-methylimidazolium ethyl sulfate] + C1CCCCC1 | – | – | mass density ([1]; x2 = 0.027): 1230.94 ± 0.41 kg/m3 |
| CCOS(=O)(=O)[O-].CCn1cc[n+](C)c1 [1-ethyl-3-methylimidazolium ethyl sulfate] | 1237.23 ± 0.43 kg/m3 | 1.4791 ± 0.00037 | – |
| C1CCCCC1 [cyclohexane] | 773.8 ± 0.13 kg/m3 | 1.4236 ± 0.00031 | – |
| CCc1ccccc1 [ethylbenzene] | 862.51 ± 0.11 kg/m3 | 1.49304 ± 0.00031 | – |
| CCOS(=O)(=O)[O-].CCn1cc[n+](C)c1 [1-ethyl-3-methylimidazolium ethyl sulfate] + CCc1ccccc1 | – | – | mass density ([1]; x2 = 0.124): 1210.43 ± 0.35 kg/m3 and 1210.4 ± 0.35 kg/m3 |
| C1CCCCCCC1 [cyclooctane] | 831.47 ± 0.24 kg/m3 | 1.45598 ± 0.00037 | – |
| CCOS(=O)(=O)[O-].CCn1cc[n+](C)c1 [1-ethyl-3-methylimidazolium ethyl sulfate] + CC1CCCCC1 | – | – | mass density ([1]; x2 = 0.026): 1232.26 ± 0.42 kg/m3 |
| CC1CCCCC1 [methylcyclohexane] | 765.02 ± 0.13 kg/m3 | 1.42062 ± 0.00031 | – |
